# Measurements taken from publication PMC6892255, “Identification of a potent small-molecule inhibitor of bacterial DNA repair that potentiates quinolone antibiotic activity in methicillin-resistant Staphylococcus aureus^” (Bioorganic & Medicinal Chemistry, 2019).
# “Also recorded” adds a separate entry of the source.
# Experiments:
# [1] = tested on: methicillin-resistant S. aureus (MRSA, USA300 JE2); test: MIC / growth inhibition assay (end-point OD600), single agent; assay type: cell-based, Staphylococcus aureus
# Source text: (§1) Minimum inhibitory concentration (MIC) assays were used to evaluate the antimicrobial activity of compounds against Gram-negative (E. coli) and Gram-positive (S. aureus) bacteria. […] Gram-positive bacteria are more susceptible to small-molecule penetration, and compounds were therefore assessed for growth inhibition against the S. aureus SH1000 strain.
# Methicillin-resistant S. aureus (MRSA) is a multi-drug resistant bacterium responsible for a large number of nosocomial infections.[34] The emergence of community associated (CA)-MRSA capable of infection of healthy individuals highlights its significance and clinical relevance.[35]
# (§2) 2.1. Biological and biochemical methods
# (§3) Bacterial strains and culture conditions
# (§4) Strains utilized in the present study are detailed in Table S1. All strains used were cultivated on Mueller Hinton Agar (MHA) and grown to stationary-phase in Mueller Hinton Broth (MHB) at 37 °C for 16 h, with shaking at 180 r.p.m.
# (§5) Minimum inhibitory concentration (MIC) assays
# (§6) MIC assays were performed in 96 well plates and MICs were determined in accordance with the broth microdilution protocol.4 Strains grown to stationary-phase in MHB were adjusted to 5 x 10^5 colony-forming units (CFU)/mL in fresh MHB (100 µL/well) supplemented with DMSO to ensure a constant concentration of 0.5% (v/v) DMSO across all experiments. Where […]
# (§7) or H2O2 (200 μM). Test compounds were prepared as two-fold serial dilutions. Cells were […]
# (§8) as the lowest concentration with no visible bacterial growth, and the optical density at 600 nm (OD600) was recorded. OD600 measurements were background corrected against no-inocula control and normalized to DMSO control for dose-response analysis. The EC50 value mean and SEM were calculated from individual EC50 values from three biological replicates. […]
# [2] = tested on: methicillin-resistant S. aureus (MRSA, USA300 JE2); test: Ciprofloxacin (CFX) potentiation in MRSA growth inhibition assay; assay type: cell-based, Staphylococcus aureus
# Protocol: as §2, §3, §4, §5, §6, §7, §8
# [3] = tested on: S. aureus SH1000; test: MIC / growth inhibition assay (end-point OD600), single agent; assay type: cell-based; details: Staphylococcus aureus, SH1000, 18 h, end-point OD600 after 18 h, read-out: EC50 S. aureus (SH1000) Compound only
# Source text: as §1, §2, §3, §4, §5, §6, §7, §8
# [4] = tested on: AddAB (StrepII-AddA and His6-AddB); test: Recombinant AddAB pulldown with compound-functionalized Sepharose; assay type: binding; details: E. coli lysate co-expressing StrepII-AddA and His6-AddB, Western blot
# Source text: A SOS reporter system was generated by transformation of JE2 cells with a plasmid containing GFP under control of the recA promoter. Activation of the SOS response in these cells results in expression of GFP which can be monitored by fluorescence intensity. […] This decrease is indicative of inhibition of the SOS response during cell death, and consistent with the proposed inhibition of AddAB-mediated DNA repair pathways. Finally, to provide additional evidence that inhibition of the bacterial DNA repair pathway by IMP-1700 (10) occurred through inhibition of AddAB, a target pulldown was conducted. IMP-1700 (10) was coupled with N-Boc-ethylenediamine to afford amide 19, followed by removal of the Boc group in 4 M HCl/dioxane and purification using strong cation exchange resin. The resulting free amine 20 was coupled to N-hydroxysuccinimide (NHS)-activated Sepharose resin at 4 °C overnight (Figure 2C), and the remaining NHS sites quenched in Tris buffer. SoluBL21 competent E. coli were transformed with pET28b^+ containing StrepII-tagged AddA and hexahistidine-tagged AddB, and expression induced overnight at 16 °C. Cells were lysed via sonication and the total lysate incubated with IMP-1700 (10)-functionalized or control Sepharose beads which had been treated with DMSO then Tris-quenched. Beads were washed three times with lysis buffer and bound protein eluted with SDS-PAGE sample buffer, followed by PAGE separation. […]
# agar (LA) supplemented with kanamycin (50 μg/mL). Liquid cultures were grown at 37 °C with shaking at 180 r.p.m until an OD600 of 0.5 was reached, at which point cultures were cooled to 16 °C. Protein expression was induced by addition of isopropyl β-D-thiogalactoside (1 mM), followed by incubation for 20 h at 16 °C with shaking. Cells were collected by centrifugation (4,000 × g, 5 min) and stored at -20 °C.
# Cells were re-suspended in lysis buffer (50 mM Tris-HCl, 150 mM NaCl, pH 7.5) and lysed on ice by sonication (2 min, 5 s on-off cycle, 40% amplitude) using a Vibra-cell sonicator (Sonics). […]
# [5] = tested on: MRSA (USA300 JE2); test: Growth inhibition in the presence of mitomycin-C; assay type: cell-based, Staphylococcus aureus
# Protocol: The analogue panel was further tested for potentiation of alternative DNA-damaging agents Mitomycin-C (MMC) and hydrogen peroxide (Table S2), which function via alkylation and oxidization DNA bases, respectively.
# as §2, §3, §4, §5, §6, §7, §8
structure (smiles),measurement,setting,value
O=C(O)c1cn(C2CC2)c2cc(N3CCN(C(=S)Nc4ccc(C(F)(F)F)cc4)CC3)c(F)cc2c1=O [Compound 10],EC50,"[1]; Staphylococcus aureus, 18 h, read-out: EC50 S. aureus (USA300 JE2) Compound only, single agent, end-point OD600 after 18 h",3800 ± 500 nM
same,fold less potent against JE2 compared to SH1000,[1]; ratio of single-agent EC50 values,> 20 fold
same,fold increase in potency against JE2 in the presence of CFX compared to single agent,[2]; CFX 9.4 µM,~650 fold
same,fold increase in potency compared to 1 for potentiation against JE2 by CFX,[2]; JE2 + CFX,~160 fold
same,"fold increase in potency of para- over meta-substituted analogue, potentiation by CFX","[2]; JE2 + CFX, 4 vs 1, 10 vs 7, 14 vs 13",~25 fold
same,EC50,"[2]; read-out: EC50 S. aureus (USA300 JE2) Compound + CFX (9.4 μM), in presence of half-MIC CFX (9.4 μM)",5.9 ± 0.6 nM
same,EC50,[3],210 ± 30 nM
same,Pulldown of AddA and AddB by compound-functionalized Sepharose,[4],allows co-isolation of the complex
same,Pulldown of AddA and AddB by compound-functionalized Sepharose,[4]; listed as IMP-1700,both AddA and AddB subunits were pulled down; also recorded: successfully pulled down
same,Potentiation of Mitomycin-C (MMC),[5]; JE2,did not potentiate
same,EC50,"[5]; read-out: EC50 Compound + MMC (0.40 µM), MRSA USA300 JE2, mitomycin-C 0.40 µM",1400 ± 300 nM
